Experimental data reported in a melting point compilation (Tetko et al.; mined from patent text by program, amines drawn as free bases though some values may be those of a salt).

First: N=C(N)N1CCC2c3ccccc3CN21 (stereo not drawn)
Second: CN(C)CC(=O)N1Cc2cccc3c2N(CC3)c2ccccc21
The melting point of the first is higher: 233 to 234 °C for the first, 104 to 107 °C for the second.

First: C=CCNc1cc(Oc2ccccc2)ccc1[N+](=O)[O-]
Second: COc1ccc(C(=O)Nc2ccccc2)cc1NCc1cccs1
The melting point of the first is lower: 67 to 68 °C for the first, 195 to 197 °C for the second.

First: Nc1nc(-c2ccccc2)c(-c2ccnc(Nc3cccc(CO)c3)n2)s1
Second: O=C(NCCO)c1ccnc(-c2cccc3cc(Cc4cccc(C(F)(F)F)c4)sc23)c1
The melting point of the first is higher: 214 to 215 °C for the first, 168 to 169 °C for the second.

Compared with NC(=O)c1cccc(OCCCl)c1, C=CCOc1cccc(C(=O)O)c1 is lower in melting point: 125 to 126 °C for the first, 78 to 79 °C for the second.

First: COC(=O)CC(=O)c1cc(F)c(F)c(F)c1F
Second: O=C(Nc1ccnn1-c1c(F)c(F)c(C(F)(F)F)c(F)c1F)C(Cl)Cl
The melting point of the first is lower: 68 to 72 °C for the first, 112 to 114 °C for the second.

Compared with O=C1Nc2cccc(NC(=O)c3cccn(-c4ccc(F)cc4)c3=O)c2/C1=C/c1ccc[nH]1, O=C(Nc1ccc(F)cc1)c1ccccc1SSc1ccccc1C(=O)Nc1ccc(F)cc1 is lower in melting point: > 300 °C for the first, 242 to 244 °C for the second.

First: NC(=O)c1nnn(Cc2ccc(Cl)c(C(=O)c3ccc(Cl)cc3)c2)c1N
Second: CCCCCc1c(C(=O)O)nn(-c2ccc(Cl)cc2Cl)c1-c1ccc(Cl)cc1
The melting point of the first is higher: 189 to 192 °C for the first, 187 °C for the second.

First: COc1ccc2c(OC)c(C(C)C)cc(OC)c2c1
Second: C=CCN(C)c1nc(-c2cc(OC)c(OC)c(OC)c2)nc2sc(C#N)c(C)c12
The melting point of the first is lower: 80 to 81.5 °C for the first, 162 to 164 °C for the second.

First: [N-]=[N+]=N[C@H]1C[C@H](C(=O)O)C1
Second: [N-]=[N+]=NC1CCc2ccccc2C1NC(=O)OCc1ccccc1 (stereo not drawn)
The melting point of the first is lower: 39 to 41 °C for the first, 104 °C for the second.

Compared with O=C(c1ccccc1O)N1CC2CCC(C1)O2, CN1CCN(C(=O)c2cccc3cc[nH]c23)CC1 is higher in melting point: 155 to 157 °C for the first, 176 to 178 °C for the second.

First: CC(C)Oc1cc(CCC(=O)NS(=O)(=O)c2ccc(C(F)(F)F)cc2)n(Cc2ccc(Cl)cc2Cl)n1
Second: CCCc1nn(-c2ccc(C(F)(F)F)cn2)cc1CCCOc1c(Br)cccc1CC(=O)O
The melting point of the first is higher: 167 to 169 °C for the first, 145 to 146 °C for the second.

Compared with CC(C)OP(=O)(/C=C/C(CO)Cn1cnc2c(N)ncnc21)OC(C)C (stereo not drawn), COc1cc(C(=O)N(C(C)C)C2CCCCC2)ccc1Cn1c(CN(C)C)nc2ncccc21 is higher in melting point: 130 °C for the first, 141 to 142 °C for the second.

First: Cc1cc2c(cc1C)SC(C(F)(F)F)C(C(=O)O)=C2 (stereo not drawn)
Second: COc1cccc(-c2ccc3c(c2)C(C)(C(F)(F)F)OC(=O)N3)c1 (stereo not drawn)
The melting point of the first is higher: 235 to 237 °C for the first, 178 to 179 °C for the second.

First: CC(C)(C)OC(=O)N1CCN(C(=O)C2CCCCN2C(=O)OCc2ccccc2)CC1 (stereo not drawn)
Second: Cc1cc(C)nc(N(CSC(=S)N2CCCC2)C(=O)NS(=O)(=O)c2ccccc2Cl)n1
The melting point of the first is lower: 102 °C for the first, 131 to 133 °C for the second.

Compared with O=C1NC(=O)C(Cc2ccc3oc(Cc4ccc(O)cc4)nc3c2)S1 (stereo not drawn), Cc1oc(-c2ccccc2)nc1CC=Cc1ccc(CCC2OC(=O)NC2=O)cc1 (stereo not drawn) is lower in melting point: 201 to 204 °C for the first, 175 to 176 °C for the second.

First: COc1ccc(Br)cc1-c1nc2ccc(OC(F)(F)F)cc2[nH]1
Second: COc1ccc(-c2nc3cc4c(cc3[nH]2)C(C)(C)CC(=O)N4)cc1
The melting point of the first is lower: 175 to 178 °C for the first, 235 to 238 °C for the second.

Compared with COc1ccc2c(c1)OC(CNCCCOc1ccc3cccnc3c1)CO2 (stereo not drawn), CC(=O)c1ccc(OCCOc2ccc3ccccc3c2)c(F)c1 is higher in melting point: 135 to 142 °C for the first, 171 to 173 °C for the second.

First: COC(=O)c1ccnc(N2CCN(Cc3ccc(F)cc3)C2=O)c1
Second: COc1ccc(C(=O)OCc2ccc(C=O)cc2)cc1C(C)(C)C
The melting point of the first is higher: 119 to 121 °C for the first, 75 to 76 °C for the second.

Compared with CCn1c(C)nc2cc(S(=O)(=O)c3cccc4cnccc34)c([N+](=O)[O-])cc21, CCc1nn(-c2cc([N+](=O)[O-])ccc2Br)c(=O)n1Cc1ccc(-c2ccccc2S(=O)(=O)NC(C)(C)C)cc1F is lower in melting point: 245 to 250 °C for the first, 223 to 225 °C for the second.

Compared with Cn1ccnc1SCC(=O)C12CC3CC(CC(C3)C1)C2, CCOc1cccc2cc(C(=O)C34CC5CC(CC(C5)C3)C4)oc12 is higher in melting point: 65 to 69 °C for the first, 84 to 86 °C for the second.

First: COC(=O)C(NC(C)=O)NC(=O)c1cc(Cl)cc(Cl)c1 (stereo not drawn)
Second: CNc1cc(C(O)CS(C)(=O)=O)cc(N(C)C(C)=O)c1C (stereo not drawn)
The melting point of the first is higher: 235 to 237 °C for the first, 191 to 192 °C for the second.

First: Cc1oc(-c2ccccc2)nc1CCOc1ccc(CCl)c2sccc12
Second: Cc1c(-c2ccccc2)oc2c(CS(=O)(=O)CCCl)cccc2c1=O
The melting point of the first is lower: 144 to 145 °C for the first, 158 to 161 °C for the second.

First: C[C@H](NC(=O)C[C@@H](CCBr)c1ccc(F)cc1)c1ccccc1
Second: CN=C1SCC(O)(C(c2ccccc2)c2ccccc2)N1C (stereo not drawn)
The melting point of the first is higher: 156 to 158 °C for the first, 133 to 136 °C for the second.

Compared with CC(C(=O)O)c1ccc2nc(N)[nH]c2c1 (stereo not drawn), COC(=O)c1cc2ccnc(N)c2[nH]1 is higher in melting point: 300 °C for the first, > 300 °C for the second.

First: Fc1cccc(NCc2nnc(-c3ccc4c(c3)CCO4)o2)c1
Second: O=C1NC(=Cc2ccccc2F)C(=O)N1c1cc(F)ccc1F
The melting point of the first is lower: 166 to 167 °C for the first, 180 to 183 °C for the second.

First: C=CC[C@@H]1C[C@@H](COc2ccc(-c3ccc(C#N)cc3)cc2)NC1=O
Second: N#Cc1ccc(C(Cc2ccc(OC(F)(F)F)cc2)Cn2cncn2)cc1 (stereo not drawn)
The melting point of the first is higher: 99 to 101 °C for the first, 70 °C for the second.

First: CCN1CCN(Cc2cc(-c3ccc4c(Nc5ccc(Cl)cc5Cl)c(C#N)cnc4c3)cs2)CC1
Second: COc1cc(OCC(=O)N[C@@H]2CCN(Cc3ccccc3)C2)ccc1C=NNC(=O)c1ccc(O)c(N)c1
The melting point of the first is higher: 182 to 184 °C for the first, 157 to 160 °C for the second.

Compared with CCn1nc2c(N)nc3ccccc3c2c1CCCCNS(C)(=O)=O, CCn1ncc2c(Cl)c3cccc(OC)c3nc21 is lower in melting point: 192 to 194 °C for the first, 168 to 170 °C for the second.

Compared with COc1ccc(C(=O)CCC2CCN(C(C)=O)CC2)cc1N, COc1ccc(C(=O)Cc2ccncc2Cl)cc1OC1CCCC1 is higher in melting point: 101 to 103 °C for the first, 124 to 125 °C for the second.

Compared with Nc1c(-c2cc(Cl)ccc2O)c2cc(Cl)c(Cl)cc2[nH]c1=O, O=C1C=C(Cl)C(=O)c2ccccc21 is lower in melting point: 305 to 307 °C for the first, 154 to 156 °C for the second.

First: O=C(c1ccccc1)N1CC=C(c2c[nH]c3ccc([N+](=O)[O-])cc23)CC1
Second: O=c1[nH]c2cc([N+](=O)[O-])c3c(c2[nH]c1=O)CN(C(=S)Nc1ccccc1)CC3
The melting point of the first is higher: 280 to 282 °C for the first, 270 to 274 °C for the second.

First: O=C(c1ccco1)c1cnn2c(-c3cccnc3)ccnc12
Second: Cc1ccc(-c2ncnc(-c3cccc(C(=O)O)c3)n2)cc1
The melting point of the first is lower: 228 to 229 °C for the first, 298 to 300 °C for the second.

First: CC(O)(c1nc2ccc([N+](=O)[O-])cc2[nH]1)C(F)(F)F (stereo not drawn)
Second: CC(C)(C(=O)O)n1c(=O)[nH]c2cccc(F)c2c1=O
The melting point of the first is lower: 73 to 75 °C for the first, 258 to 260 °C for the second.

First: COc1ccc(Nc2ccc(OCc3ccccc3)cc2)c(C(C)=O)c1
Second: COC(=O)CCc1ccc(OCc2cccc(-c3cccc(CO)c3)c2)cc1
The melting point of the first is lower: 80 to 81.5 °C for the first, 185 to 188 °C for the second.

First: CCN(CC)CCN1C(=O)Nc2ccccc2C1c1cccc(O)c1 (stereo not drawn)
Second: CC1c2ccccc2NC(=O)N1CCCl (stereo not drawn)
The melting point of the first is higher: 208 to 210 °C for the first, 126 °C for the second.

First: CCCc1sc(-c2ccccc2)nc1O
Second: O=C(O)CCc1cnoc1-c1ccc(F)cc1
The melting point of the first is lower: 86 to 87 °C for the first, 126 to 127 °C for the second.

Compared with C=CCN1C(=O)c2cccc(C)c2Oc2ncccc21, Cc1c(SCc2cccs2)ccnc1CSc1nc2ccccc2[nH]1 is higher in melting point: 58 to 60 °C for the first, 131 to 133 °C for the second.

First: COCC(=O)Oc1ccc(C=CNC(C)=O)cc1
Second: CCOC(=O)CNC(=O)Oc1c(Cl)cc(Cl)c2cccnc12
The melting point of the first is higher: 169 to 170 °C for the first, 120 °C for the second.

First: N#Cc1c(N)nn(-c2c(Cl)cc(C(F)(F)F)cc2Cl)c1N
Second: CCOC(=O)CN1C(=O)C(=C(C)C)SC1=Nc1cc(-n2c(=O)cc(C(F)(F)F)n(C)c2=O)c(F)cc1Cl
The melting point of the first is higher: 208 to 210 °C for the first, 67 to 80 °C for the second.

First: CCCCC(Oc1ccc(C#N)cc1C=O)C(=O)OC (stereo not drawn)
Second: N#Cc1ccc2c(c1)S(=O)(=O)NCN2C1CC1
The melting point of the first is lower: 77 to 79 °C for the first, 259 to 261 °C for the second.

Compared with CCc1ccc(C(=O)NCc2ccc3c(c2)C(=O)N([C@@]2(C)CCC(=O)NC2=O)C3=O)cc1, CN(C)CC(O)Cn1c2ccccc2c2c3c(c4c5ccccc5n(C)c4c21)C(=O)NC3=O (stereo not drawn) is lower in melting point: 160 to 162 °C for the first, 130 to 135 °C for the second.

First: COc1cc(OC)nc(NS(=O)(=O)c2ccccc2N(C)S(C)(=O)=O)n1
Second: CN(C)C(=O)c1ccc(NS(C)(=O)=O)c(Oc2ccc(F)cc2F)c1
The melting point of the first is higher: 228 to 230 °C for the first, 165 to 167 °C for the second.

First: C/C(=N\O)c1ccc(SSc2ccc(/C(C)=N/O)cn2)nc1
Second: CCCc1c(OCCCCCC(=O)c2ccc(OC)c(OC)c2)ccc(C(=O)O)c1O
The melting point of the first is higher: 200 to 201 °C for the first, 114 to 117 °C for the second.

First: Cc1ccc2c(c1)C(C1=CCN(C(C)O)CC1)CC2(O)c1ccc(F)cc1 (stereo not drawn)
Second: Cc1nc2ccccc2n1Cc1ccc(C(=O)O)c2ccccc12
The melting point of the first is lower: 177 to 178 °C for the first, 292 to 293 °C for the second.

Compared with CCCCc1nc2cnc3cc(C)ccc3c2o1, CCC(C)(C)c1cc(-n2nc3ccccc3n2)c(O)c(C(C)(C)CC)c1 is higher in melting point: 52 to 55 °C for the first, 77 to 79 °C for the second.

First: N#Cc1ccc(Cn2cc(C#N)nn2)cc1
Second: N#Cc1nc(C#Cc2ccccc2)c(C#Cc2ccccc2)nc1C#N
The melting point of the first is lower: 93.5 to 94 °C for the first, 226 to 227 °C for the second.

First: CCC(=CC#N)c1ccc2c(c1)C1(CCCCC1)OC(=O)N2
Second: CCC1CCc2cc(CC(=O)O)ccc2O1 (stereo not drawn)
The melting point of the first is higher: 173 to 174 °C for the first, 88 to 90 °C for the second.

First: CCOc1nc(OCC)nc(N2CCN(C=O)CC2)n1
Second: CCOC(=O)C(=NNc1ccccc1CC)C(=O)OCC
The melting point of the first is higher: 106 to 108 °C for the first, 33 to 34 °C for the second.

First: CC(=O)OC1C2C=CC1C1N=NC21 (stereo not drawn)
Second: COc1ccc(C2=NNS(=O)(=O)Cc3cc4nsnc4cc32)cc1
The melting point of the first is lower: 58 °C for the first, 225 to 227 °C for the second.

CCSc1cc2c(cc1SCC)C(=O)c1c(c(Cl)c3cc(SCC)c(SCC)cc3c1Cl)C2=O and O=c1[nH]c2ccc(Br)cc2c(=O)n1CCS cannot be ordered by melting point: > 260 °C for the first, 334 to 336 °C for the second.

First: CC1CCCN1CCCN1CCN(CCCN2CCC(F)(F)C2)C1=C(C#N)C#N (stereo not drawn)
Second: CCCC1CCC(C2CCC3(CC2)C(=O)C2(CCC(C4CCC(CCC)CC4)CC2)C3=O)CC1 (stereo not drawn)
The melting point of the first is lower: 99 to 102 °C for the first, 290 °C for the second.

With CC(C)(C)c1cc(Oc2ccc(N)cc2)ccc1Oc1ccc(N)cc1 the melting point was 129 to 130 °C.
